Assay results reported in patent US11596644B2, “Method for treating post-prandial hypoglycemia” (AVOLYNT, priority 2018, dated 2023).
Marks after values point to notes of the source that are not given here.

Key:
human SGLT2 = target: T1, human SGLT2 (Homo sapiens, UniProt P31639); experiment: Inhibition of radiolabeled α-MG uptake into COS-7 cells transfected with human SGLT2 (Dixon plot); assay type: cell-based; settings: α-MG 0.3 and 1 mM, read-out: inhibition constant for human SGLT2
T1 construct: expressed in transfected cells; host or cells: COS-7
T1 sequence (P31639 1-672): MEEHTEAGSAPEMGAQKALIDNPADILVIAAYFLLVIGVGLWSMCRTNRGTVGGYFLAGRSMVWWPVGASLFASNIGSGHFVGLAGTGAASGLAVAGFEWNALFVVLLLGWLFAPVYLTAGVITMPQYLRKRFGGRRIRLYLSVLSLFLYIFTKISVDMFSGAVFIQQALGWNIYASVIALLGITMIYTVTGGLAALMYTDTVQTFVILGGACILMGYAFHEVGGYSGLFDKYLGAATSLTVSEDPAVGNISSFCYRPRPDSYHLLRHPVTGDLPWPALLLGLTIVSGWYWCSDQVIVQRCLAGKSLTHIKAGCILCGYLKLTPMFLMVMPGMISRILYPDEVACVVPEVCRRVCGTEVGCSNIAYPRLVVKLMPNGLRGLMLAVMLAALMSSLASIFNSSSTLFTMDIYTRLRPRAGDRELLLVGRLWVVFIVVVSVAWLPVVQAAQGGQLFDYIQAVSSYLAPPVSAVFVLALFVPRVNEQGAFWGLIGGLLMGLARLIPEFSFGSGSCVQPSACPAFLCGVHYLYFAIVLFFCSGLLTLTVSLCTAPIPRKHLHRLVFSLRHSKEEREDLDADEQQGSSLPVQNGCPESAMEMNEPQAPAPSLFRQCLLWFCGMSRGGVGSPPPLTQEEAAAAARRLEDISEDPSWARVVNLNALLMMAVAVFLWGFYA
Procedure: Selective inhibition study. Inhibition constants (Ki) of mizagliflozin for rat and human SGLT1 and SGLT2 were determined measuring concentration-dependent effects of test compound on uptake of radiolabeled methyl-α-D-glucopyranoside (α-MG) into COS-7 cells transiently transfected with cloned SGLT1 or SGLT2. Mizagliflozin was assessed at concentrations from 1 to 30 μM and 3 to 100 μM for human and rat SGLT2, respectively. It was assessed at concentrations from 30 nM to 1 μM and 10 to 30 nM for human and rat SGLT1, respectively. α-MG test concentrations were 0.3 and 1 mM. Data were analyzed and Ki determined using Dixon plots of initial transport rates. […] Inhibition constants were also determined for human SGLT1 and SGLT2.

[1] = test system: STZ-induced diabetic rats; experiment: Oral glucose tolerance test in STZ-induced diabetic rats (Example 4); assay type: in vivo, rat
Procedure: Study in diabetic rats using oral glucose tolerance test. Efficacy of mizagliflozin was tested in a rat model for diabetes using an oral glucose tolerance test (OGTT). Diabetic model rats were prepared by intravenous administration of STZ to induce diabetes. Seven days after STZ administration, rats were fasted for 16 hours and then given an oral loading dose of 2.0 g/kg of glucose. Mizagliflozin, or water as the vehicle control, was then administered as a single oral dose to groups of male rats (n=8/group) at doses of 0.03, 0.1, 0.3, and 1 mg/kg. Another control group was given vehicle and consisted of normal male Sprague Dawley rats that were not administrated STZ. Voglibose was also administered as a single oral dose to male rats (n=8/group) at dose levels of 0.1, 0.3 and 1 mg/kg. Blood samples were collected just prior to loading with mixed carbohydrate and at 0.5, 1, 2, 3, 4, and 6 hours after loading. Plasma glucose concentrations were determined and ΔAUC0-1 h for plasma glucose was calculated.

[2] = test system: STZ-induced diabetic rats; experiment: OGTT in STZ-induced diabetic rats (Example 8); assay type: in vivo, rat; settings: for Plasma glucose 0 hr: before dosing; for Plasma glucose 0 hr / Plasma glucose 0.5 hr / Plasma glucose 1 hr / Plasma glucose 2 hr / Plasma glucose 3 hr / ΔAUC (0-1) / ΔAUC (0-1) (% of Control): glucose 2 g/kg, mean ± S.E.M.
Procedure: Study in diabetic rats with glucose. Diabetic rats, induced by intravenous injection of streptozotocin (STZ; 40 mg/kg), were used to determining plasma glucose concentration (PG) 1 hr after oral glucose tolerance test (OGTT). […] Blood was collected via the caudal artery immediately before dosing and 0.5, 1, 2, and 3 hr after dosing. The glucose concentration measurement in plasma used Glucose CII-Test Wako kit (Wako Pure Chemicals Industries, Ltd., Osaka, Japan). The variables used for efficacy assessment were the measurement values of the plasma glucose concentration and the area under the curve for plasma glucose concentration through 1 hr after loading (ΔAUC0-1 hr). The ΔAUC0-1 hr for plasma glucose was calculated based on the trapezoid method using the change of plasma glucose concentrations from pre-value (0 hr).

[3] = test system: STZ-induced diabetic rats; experiment: Mixed carbohydrate tolerance test in STZ-induced diabetic rats (Example 3); assay type: in vivo, rat
Procedure: Study in diabetic rats. Mizagliflozin was tested in a rat model for diabetes and efficacy, as measured by a relative decrease in plasma glucose, was determined using a mixed carbohydrate tolerance test. Diabetic model rats were prepared by intravenous administration of streptozotocin (STZ) to induce diabetes. Seven days after STZ administration, rats were fasted for 16 hours and then given an oral loading dose of 2.0 g/kg of mixed carbohydrate (soluble starch:sucrose:lactose monohydrate=6:3:1). Mizagliflozin, or water as the vehicle control, was then administered as a single oral dose to groups of male rats (n=8/group) at doses of 0.01, 0.03, 0.1, and 0.3 mg/kg. Another control group was given vehicle and consisted of normal male Sprague Dawley rats that were not administered STZ. Voglibose was also administered as a single oral dose to male rats (n=8/group) at dose levels of 0.03, 0.1 and 0.3 mg/kg. Blood samples were collected just prior to loading with mixed carbohydrate and at 0.5, 1, 2, 3, 4, and 6 hours after loading. Plasma glucose concentrations were determined and ΔAUC0-1 h for plasma glucose was calculated.

Ki (human SGLT2): 8.17 µM
Structure (SMILES): Cc1cc(OCCCNCC(C)(C)C(N)=O)ccc1Cc1c(O[C@@H]2O[C@H](CO)[C@@H](O)[C@H](O)[C@H]2O)n[nH]c1C(C)C [mizagliflozin, 3-(3-{4-[3-(β-D-glucopyranosyloxy)-5-isopropyl-1H-pyrazol-4-ylmethyl-]-3-methylphenoxy}propylamino)-2,2-dimethylpropionamide]
ED50 ([1]; Rattus norvegicus, read-out: ED50 calculated from mean ΔAUC0-1 h (% of control), glucose 2.0 g/kg, single oral dose): 0.099 mg/kg
ΔAUC0-1 h of plasma glucose versus vehicle control ([1]; glucose 2.0 g/kg): significantly lowered
Plasma glucose 0 hr ([2]; 0.03 mg/kg oral): 128 ± 10 mg/dL
Plasma glucose 0.5 hr ([2]; 0.03 mg/kg oral): 356 ± 25 mg/dL
Plasma glucose 1 hr ([2]; 0.03 mg/kg oral): 371 ± 33 mg/dL
Plasma glucose 2 hr ([2]; 0.03 mg/kg oral): 172 ± 29 mg/dL
Plasma glucose 3 hr ([2]; 0.03 mg/kg oral): 91 ± 12 mg/dL
ΔAUC (0-1) ([2]; 0.03 mg/kg oral): 174 ± 17 mg·h/dL
ΔAUC (0-1) (% of Control) ([2]; 0.03 mg/kg oral): 90 ± 9 % of Control
Plasma glucose 0 hr ([2]; 0.1 mg/kg oral): 120 ± 12 mg/dL
Plasma glucose 0.5 hr ([2]; 0.1 mg/kg oral): 262 ± 27^y mg/dL
Plasma glucose 1 hr ([2]; 0.1 mg/kg oral): 305 ± 43 mg/dL
Plasma glucose 2 hr ([2]; 0.1 mg/kg oral): 238 ± 53 mg/dL
Plasma glucose 3 hr ([2]; 0.1 mg/kg oral): 137 ± 26 mg/dL
ΔAUC (0-1) ([2]; 0.1 mg/kg oral): 117 ± 18^x mg · dL^−1 · hr
ΔAUC (0-1) (% of Control) ([2]; 0.1 mg/kg oral): 60 ± 9^x % of Control
PG elevation after glucose administration ([2]; 0.03 and 0.1 mg/kg oral, OGTT 2 g/kg): inhibited PG elevation after glucose administration dose dependently
ED50 ([3]; Rattus norvegicus, read-out: ED50 calculated from mean ΔAUC0-1 h (% of control), mixed carbohydrate 2.0 g/kg, single oral dose): 0.096 mg/kg
ΔAUC0-1 h of plasma glucose versus vehicle control ([3]; mixed carbohydrate 2.0 g/kg): significantly lowered
